Measured values as given in US5292736A, “Morpholinoalkylindenes as antiglaucoma agents” (Sterling Winthrop Inc., priority 1993, dated 1994).
Where two headings read alike, the source gives them in different places.

What was measured:
cannabinoid receptor = molecular target: T1, cannabinoid receptor (Rattus norvegicus, UniProt P20272); test: cannabinoid receptor binding test (CR), predictive of antiglaucoma activity
T1 construct: Brain tissue from rats was homogenized; from tissue; host or cells: rat brain, washed homogenate membranes
Method: (§1) In standard biological test procedures, compounds of formula I were tested for analgesic and cannabinoid receptor activity. The mouse vas deferens test correlates well with analgesic activity and has long been used to screen for such activity. Cannabinoid receptor binding is characteristic and predictive of the efficacy of intraocular pressure reducing compounds and was thus used to test the compounds of formula I for antiglaucoma activity.
Data from the cannabinoid receptor binding test (CR), predictive of antiglaucoma activity, was obtained as follows:
Brain tissue from rats was homogenized in ice cold 20 mM HEPES-NaOH, pH 7.0, diluted approximately 1:100 (w/v) with the same buffer and centrifuged at 48,000 g for 10 minutes at 4° C. The pellet was washed by resuspension and centrifugation as above. The final pellet was suspended (1:120 w/v) in 20 mM HEPES-NaOH, pH 7.0 and stored on ice for use within 1 hour.
Compounds (10 mM) were solubilized in a mixture of 0.3 N methane sulfonic acid - 13.5% ethanol. Cannabinoids were dissolved in absolute ethanol. Other compounds were dissolved in dimethylsulfoxide (DMSO). All compounds were diluted in 20 mM HEPES, pH 7.0 containing 5 mg/ml bovine serum albumin (BSA).
The final assay concentration of BSA was 1.0 mg/ml in these experiments. Final assay concentrations of ≤50 mM ethanol, ≤1×10^-3 N methane sulfonic acid, ≤2.5 mM ethanol+3×10^-4 N methane sulfonic acid or ≤3% DMSO had no effect on specific binding. The possible effects of all vehicles were controlled in each assay.
The assay was started with the addition of homogenate and the tubes incubated at 30° C. for 90 min in a shaking waterbath. Each tube contained 20 mM HEPES-NaOH buffer, pH 7.0, 1.0 mg/ml BSA, competing drug or vehicle, and 100-125 μg membrane protein in a 1 ml incubation volume. Saturation studies were conducted over 3 log units of radioligand concentration (0.1-22 nM). Specific binding was defined as the difference in binding in the presence and absence of 1.0 μM unlabeled 2-[(3-chloro-4-hydroxyphenyl)amino]benzene methanol, a molecule that is known to […] bind to cannabinoid receptors.
Samples were filtered over Whatman GF/B filters with 20 ml of 20 mM HEPES, pH 7.0, containing 0.5 mg/ml BSA. Radioactivity on the filters, expressed in dpm, was measured by liquid scintillation spectrometry. Assays were conducted in triplicate and experiments were repeated at least three times.
The results for the CR test are IC50 concentrations (in nM) or % inhibition at 1 μM and 30 μM concentrations.

[1] = system: acetylcholine-induced abdominal constriction; test: acetylcholine-induced abdominal constriction test (ACH), oral; format: in vivo; conditions: oral administration
Source text: Data obtained by the oral administration of the invention in the acetylcholine-induced abdominal constriction test (ACH), a measure of analgesic effectiveness, are expressed in the table below as the ED50 in mg/kg or as the percent inhibition at a given dose level in mg/kg. The acetyl choline-induced abdominal constriction test (ACH) is described in Brit. J. Pharmacol., 32: 295 (1968) and U.S. Pat. No. 4,581,534, incorporated herein by reference.

mouse vas deferens = mouse vas deferens test (MVD), screening for analgesic activity; format: cell-based; conditions: considered active at 5.0 μM or less
Method: as §1
The mouse vas deferens test (MVD), a means of screening for analgesic activity, is disclosed in U.S. Pat. No. 4,840,950, which is incorporated herein by reference.

[2] = 1 μM; rat brain membranes, pH 7.0, 30° C., 90 min
[3] = 30 μM; rat brain membranes, pH 7.0, 30° C., 90 min
[4] = rat brain membranes, pH 7.0, 30° C., 90 min; read-out: CR IC50

T1 sequence (P20272 whole entry): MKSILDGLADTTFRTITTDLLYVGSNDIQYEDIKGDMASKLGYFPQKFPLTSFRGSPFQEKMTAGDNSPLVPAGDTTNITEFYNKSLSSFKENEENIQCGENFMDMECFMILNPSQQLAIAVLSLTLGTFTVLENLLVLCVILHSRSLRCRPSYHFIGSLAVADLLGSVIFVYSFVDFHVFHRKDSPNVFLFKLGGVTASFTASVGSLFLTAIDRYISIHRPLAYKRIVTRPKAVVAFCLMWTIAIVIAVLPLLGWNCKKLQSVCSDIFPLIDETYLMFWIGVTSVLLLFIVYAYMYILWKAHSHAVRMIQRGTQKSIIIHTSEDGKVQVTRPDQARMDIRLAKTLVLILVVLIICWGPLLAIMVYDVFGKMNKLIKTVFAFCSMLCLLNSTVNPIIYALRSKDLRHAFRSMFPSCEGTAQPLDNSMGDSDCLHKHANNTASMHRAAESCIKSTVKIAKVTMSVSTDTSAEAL

Work on COc1ccc(C=C2C=C(CCN3CCOCC3)c3ccccc32)cc1 [Example 1, 4-[2-[1-[(4-methoxyphenyl)methylene]-1H-inden-3-yl)ethyl]morpholine] yielded an IC50 (cannabinoid receptor; read-out: CR IC50; rat brain membranes, pH 7.0, 30° C., 90 min) of 0.058 µM, an ED50 [1] of 46 mg/kg and an IC50 (mouse vas deferens) of 0.08 µM.

C(=C1C=C(CCN2CCOCC2)c2ccccc21)c1ccccc1 [Example 2] gave an inhibition at 1 µM (cannabinoid receptor; [2]) of 33%, an ED50 [1] of 65 mg/kg and an IC50 (mouse vas deferens) of 0.079 µM.

With COc1ccc(C=C2C(C)=C(CCN3CCOCC3)c3ccccc32)cc1 [Example 3] the inhibition at 1 µM (cannabinoid receptor; [2]) was 45% and the “Ach percent inhibition at 100 mg/kg” value [1] was 30%.

In the case of CSc1ccc(C=C2C=C(CCN3CCOCC3)c3ccccc32)cc1 [Example 4], the inhibition at 1 µM (cannabinoid receptor; [2]) is reported as 96% and the ED50 [1] is reported as 50 mg/kg.

In the case of Fc1ccc(C=C2C=C(CCCN3CCOCC3)c3ccccc32)cc1 [Example 5], the inhibition at 30 µM (cannabinoid receptor; [3]) is reported as 5% and the ED50 [1] is reported as 52 mg/kg.

In the case of CN(C)c1ccc(C=C2C=C(CCN3CCOCC3)c3ccccc32)cc1 [Example 6], the inhibition at 30 µM (cannabinoid receptor; [3]) is reported as 88% and the ED50 [1] is reported as 103 mg/kg.

With Fc1ccccc1C=C1C=C(CCN2CCOCC2)c2ccccc21 [Example 7] the inhibition at 30 µM (cannabinoid receptor; [3]) was 78% and the ED50 [1] was 86 mg/kg.

COc1ccc(C=C2C=C(CCN3CCOCC3)c3ccccc32)c2ccccc12 [Example 8] showed an IC50 (cannabinoid receptor; [4]) of 0.0009 µM, an ED50 [1] of 3.2 mg/kg and an IC50 (mouse vas deferens) of 0.008 µM.

For C(=C1C=C(CCN2CCOCC2)c2ccccc21)c1cccc2ccccc12 [Example 9], the IC50 (cannabinoid receptor; [4]) was 0.001 µM, the “Ach percent inhibition at 10 mg/kg” value ([1]; 10 mg/kg) was 83% and the IC50 (mouse vas deferens) was 0.007 µM.

CC1=C(CCN2CCOCC2)c2ccccc2C1=Cc1cccc2ccccc12 [Example 10] gave an IC50 (cannabinoid receptor; [4]) of 0.01 µM, an ED50 [1] of 34 mg/kg and an IC50 (mouse vas deferens) of 0.045 µM.

With CC1=C(CCN2CCOCC2)c2ccccc2C1=Cc1ccnc2ccccc12 [Example 11] the “Ach percent inhibition at 100 mg/kg” value [1] was 40% and the IC50 (mouse vas deferens) was 1.65 µM.

For C(=C1C=C(CCCN2CCOCC2)c2ccccc21)c1cccc2ccccc12 [Example 12], the inhibition at 1 µM (cannabinoid receptor; [2]) was 97%, the “Ach percent inhibition at 100 mg/kg” value [1] was 30% and the IC50 (mouse vas deferens) was 0.096 µM.

With COc1ccc(C=C2C=C(CCN3CCOCC3)c3ccccc32)cc1OC [Example 13] the IC50 (cannabinoid receptor; [4]) was 0.028 µM, the ED50 [1] was 19 mg/kg and the IC50 (mouse vas deferens) was 0.019 µM.

For C(=Cc1ccccc1)C=C1C=C(CCN2CCOCC2)c2ccccc21 [Example 14], the inhibition at 1 µM (cannabinoid receptor; [2]) was 68% and the “Ach percent inhibition at 100 mg/kg” value [1] was 20%.

COc1ccc(C=C2C=C(CCCN3CCOCC3)c3ccccc32)c2ccccc12 [Example 15] was tested, and the IC50 (cannabinoid receptor; [4]) was 0.012 µM and the “Ach percent inhibition at 100 mg/kg” value [1] was 10%.

For COc1ccc(C=C2C(C)=C(CCN3CCOCC3)c3ccccc32)c2ccccc12 [Example 16], the “Ach percent inhibition at 100 mg/kg” value [1] was 30% and the IC50 (mouse vas deferens) was 0.35 µM.

With N#Cc1ccc(C=C2C=C(CCN3CCOCC3)c3ccccc32)cc1 [Example 17] the inhibition at 1 µM (cannabinoid receptor; [2]) was 76% and the ED50 [1] was 100 mg/kg.

Work on C(=C1C=C(CCN2CCOCC2)c2ccccc21)c1cccc2[nH]ccc12 [Example 18] yielded an ED50 [1] of 15 mg/kg and an IC50 (mouse vas deferens) of 0.31 µM.

Oc1ccc(C=C2C=C(CCN3CCOCC3)c3ccccc32)c2ccccc12 [Example 19] was tested, and the inhibition at 1 µM (cannabinoid receptor; [2]) was 97% and the ED50 [1] was 2.7 mg/kg.

C(=C1C=C(CCN2CCOCC2)c2ccccc21)c1c2ccccc2cc2ccccc12 [Example 20] was tested, and the IC50 (mouse vas deferens) was 0.812 µM.

C[S+]([O-])c1ccc(C=C2C=C(CCN3CCOCC3)c3ccccc32)cc1 (centres unmarked) [Example 21, 4-[2-[[1-[4-(methylsulfinyl)phenyl]methylene]-1H-inden-3-yl]ethyl]morpholine] gave an ED50 [1] of 25 mg/kg and an IC50 (mouse vas deferens) of 0.193 µM.

COc1ccc(C(=O)OC(=C2C=C(CCN3CCOCC3)c3ccccc32)c2ccc(OC)cc2)cc1 [Example 22, (4-methoxyphenyl)[3-(2-[4-morpholinyl)ethyl)-1H-inden-1-ylidine]methyl 4-methoxy benzoate] was tested, and the inhibition at 1 µM (cannabinoid receptor; [2]) was 51% and the “Ach percent inhibition at 100 mg/kg” value [1] was 10%.
